What all share (assay type): biochemical
The target of test [1] is T1, Aβ 1-42 fibrils (Homo sapiens, UniProt P05067).
T1 construct: purchased Bachem Inc
The experiment in a line: Congo red binding assay, Aβ 1-42 fibrils (Example 11). Conditions: 3-day incubation. Here is the method: (§1) In the Congo red binding assay, the ability of a test compound to alter amyloid (in this case, Aβ) binding to Congo red is quantified. In this assay, Aβ 1-42 and test compounds were incubated for 3 days and then vacuum filtered through a 0.2 μm filter. The amount of Aβ 1-42 retained in the filter was then quantitated following staining of the filter with Congo red. After appropriate washing of the filter, any lowering of the Congo red color on the filter in the presence of the test compound (compared to the Congo red staining of the amyloid protein in the absence of the test compound) was indicative of the test compound's ability to diminish/alter the amount of aggregated and congophilic Aβ.
In one study, the ability of Aβ fibrils to bind Congo red in the absence or presence of increasing amounts of the compounds or EDTA (at Aβ:test compound weight ratios of 1:1, 1:0.1, 1:0.01 or 1:0.001) was determined.

Test [2] has as its target T2, α-synuclein fibrils (Homo sapiens, UniProt P37840).
T2 construct: purchased rPeptide
Briefly: Congo red binding assay, α-synuclein fibrils (Example 12). Particulars: 3-day incubation. Here is the method: as §1, with “of a given test compound” for “of a test compound”, “this case, α-synuclein) binding to” for “this case, Aβ) binding to”, “this assay, α-synuclein and test” for “this assay, Aβ 1-42 and test”, “amount of α-synuclein retained in” for “amount of Aβ 1-42 retained in”, “and congophilic α-synuclein.” for “and congophilic Aβ.”
In one study, the ability of α-synuclein fibrils to bind Congo red in the absence or presence of increasing amounts of compounds DC-0051-F1, F2, F3, F4, F5, F6 and EDTA (at α-synuclein:test compound weight ratios of 1:1, 1:0.1, 1:0.01 or 1:0.001) was determined.

Test [3] addresses T2, α-synuclein fibrils. Briefly: Thioflavin T fluorometry, disruption of pre-formed α-synuclein fibrils (Example 12). Particulars: 3 days; for disruption/disassembly of pre-formed α-synuclein fibrils, in words: Thioflavin T fluorometry, all concentrations tested; for % Inhibition α-synuclein (result ± S.D.), Thioflavin T fluorometry: 30 μg pre-fibrillized α-synuclein, 37° C. Here is the method: In this assay, Thioflavin T binds specifically to α-synuclein fibrils, and this binding produces a fluorescence enhancement at 485 nm that is directly proportional to the amount of α-synuclein fibrils present. The higher the fluorescence, the greater the amount of α-synuclein fibrils present (Naki et al, Lab. Invest. 65:104-110, 1991; Levine III, Protein Sci. 2:404-410, 1993; Amyloid: Int. J. Exp. Clin. Invest. 2:1-6, 1995).
In this study, 30 μg of pre-fibrillized α-synuclein (rPeptide) was incubated at 37° C. for 3 days either alone or in the presence of compounds DC-0051-F1, F2, F3, F4, F5, F6 or EDTA (at α-synuclein:test compound weight ratios of 1:1, 1:0.1, 1:0.01 or 1:0.001). Following 3-days of co-incubation, 50 μl of each incubation mixture was transferred into a 96-well microtiter plate containing 150 μl of distilled water and 50 μl of a Thioflavin T solution (i.e. […] Thioflavin T in 250 mM phosphate buffer, pH 6.8). The fluorescence was read at 485 nm (444 nm excitation wavelength) using an ELISA plate fluorometer after subtraction with buffer alone or compound alone, as blank.

In test [4] the target is T1, Aβ 1-42 fibrils. The experiment in a line: Thioflavin T fluorometry, disruption of pre-formed Aβ 1-42 fibrils (Example 11). Conditions: 30 μg pre-fibrillized Aβ 1-42, 37° C., 3 days. The source says: In one study, Thioflavin T fluorometry was used to determine the effects of the compounds, and of EDTA (as a negative control). In this assay Thioflavin T binds specifically to fibrillar amyloid, and this binding produces a fluorescence enhancement at 485 nm that is directly proportional to the amount of amyloid fibrils formed. The higher the fluorescence, the greater the amount of amyloid fibrils formed (Naki et al., Lab. Invest. 65:104-110, 1991; Levine III, Protein Sci. 2:404-410, 1993; Amyloid: Int. J. Exp. Clin. Invest. 2:1-6, 1995).
Following 3-days of co-incubation, 50 μl of each incubation mixture was transferred into a 96-well microtiter plate containing 150 μl of distilled water and 50 μl of a Thioflavin T solution (i.e. 500 mM Thioflavin T in 250 mM phosphate buffer, pH 6.8). The fluorescence was read at 485 nm (444 nm excitation wavelength) using an ELISA plate fluorometer after subtraction with buffer alone or compound alone, as blank.

Where [5] appears, read: Aβ:test compound wt/wt ratio 1:0.001.
The mark [6] stands for this setting: Aβ:test compound wt/wt ratio 1:0.01.
[7] abbreviates: Aβ:test compound wt/wt ratio 1:0.1.
Where [8] appears, read: Aβ:test compound wt/wt ratio 1:1.
The mark [9] stands for this setting: α-synuclein:test compound wt/wt ratio 1:0.001.
Setting [10] is: α-synuclein:test compound wt/wt ratio 1:0.01.
Setting [11] is: α-synuclein:test compound wt/wt ratio 1:0.1.
Setting [12] is: α-synuclein:test compound wt/wt ratio 1:1.

The text below walks through data of patent US20110104055A1, “SUBSTITUTED N-ARYL BENZAMIDES AND RELATED COMPOUNDS FOR TREATMENT OF AMYLOID DISEASES AND SYNUCLEINOPATHIES” (priority 2002, published 2011).

T1 sequence (P05067 672-713): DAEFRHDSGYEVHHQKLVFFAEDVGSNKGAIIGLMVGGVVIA

Consider `O=C(Nc1ccc(O)c(O)c1)c1ccc(O)c(O)c1F` [DC-0051-F1, 3,4-Dihydroxy-2-fluoro-N-(3,4-dihydroxyphenyl)benzamide], for which the “% Inhibition Aβ (result ± S.D.), Congo red binding” value (“% Inhibition Aβ … Congo red binding” below) in test [1] (setting [5]) was found to be 3.7 ± 4.36%; in test [1] (setting [6]) it was 2.2 ± 7.70%; in test [1] (setting [7]), 27.5±2.39%; in test [1] (setting [8]), 80.1±2.61%. Besides, the “% Inhibition α-synuclein (result ± S.D.), Congo red binding” value in test [2] (setting [9]) is on record as 0.0 ± 3.42%; in test [2] (setting [10]) it was 3.8 ± 5.82%; in test [2] (setting [11]), 32.9±2.97%; in test [2] (setting [12]), 69.8±2.67%. The “disruption/disassembly of pre-formed α-synuclein fibrils, in words” value (“disruption/disassembly” for short) in test [3] is reported as “dose-dependent disruption/disassembly”. The “% Inhibition α-synuclein (result ± S.D.), Thioflavin T fluorometry” value is listed as 13.7 ± 6.06% in test [3] (setting [9]), 58.4 ± 5.06% in test [3] (setting [10]), 90.4 ± 2.07% in test [3] (setting [11]) and 100.0 ± 3.14% in test [3] (setting [12]). Besides, the “% Inhibition Aβ (result ± S.D.), Thioflavin T fluorometry” value was 15.6 ± 2.01% in test [4] (setting [5]), 37.1 ± 1.44% in test [4] (setting [6]), 91.3 ± 1.39% in test [4] (setting [7]) and 98.7 ± 0.38% in test [4] (setting [8]).
With `O=C(Nc1ccc(O)c(O)c1)c1cc(O)c(O)cc1F` [DC-0051-F2, N-(3,4-dihydroxyphenyl)-2-fluoro-4,5-dihydroxy benzamide], the “% Inhibition Aβ … Congo red binding” value is listed as 4.9 ± 7.88% in test [1] (setting [5]), 0.5 ± 5.24% in test [1] (setting [6]), 49.9±9.13% in test [1] (setting [7]) and 80.1±3.79% in test [1] (setting [8]). Moreover, the “% Inhibition α-synuclein (result ± S.D.), Congo red binding” value in test [2] (setting [9]) came to 0.0 ± 6.71%; in test [2] (setting [10]), 3.7 ± 2.83%; in test [2] (setting [11]) it was 36.5±53.4%; in test [2] (setting [12]) it was 67.8±3.52%. Further, the “disruption/disassembly” value in test [3] is reported as “dose-dependent disruption/disassembly”. In addition, the “% Inhibition α-synuclein (result ± S.D.), Thioflavin T fluorometry” value came out at 15.9 ± 7.20% in test [3] (setting [9]), 61.1±1.37% in test [3] (setting [10]), 94.7±2.57% in test [3] (setting [11]) and 100.0 ± 1.49% in test [3] (setting [12]). Also, the “% Inhibition Aβ (result ± S.D.), Thioflavin T fluorometry” value was 17.1 ± 4.32% in test [4] (setting [5]), 53.7±6.29% in test [4] (setting [6]), 95.9±0.88% in test [4] (setting [7]) and 99.6 ± 0.55% in test [4] (setting [8]).
For `O=C(Nc1ccc(O)c(O)c1)c1cc(O)c(O)c(F)c1` [DC-0051-F3, 4,5-Dihydroxy-3-fluoro-N-(3,4-dihydroxyphenyl)benzamide], the “% Inhibition Aβ … Congo red binding” value in test [1] (setting [5]) is reported as 0.0 ± 2.64%; in test [1] (setting [6]), 0.0 ± 3.25%; in test [1] (setting [7]), 23.3 ± 5.01%; in test [1] (setting [8]), 74.5 ± 2.69%. For the same compound, the “% Inhibition α-synuclein (result ± S.D.), Congo red binding” value was 0.0 ± 3.93% in test [2] (setting [9]), 2.6 ± 4.90% in test [2] (setting [10]), 23.3 ± 2.24% in test [2] (setting [11]) and 55.9 ± 2.65% in test [2] (setting [12]). Further, the “disruption/disassembly” value in test [3] is “dose-dependent disruption/disassembly”. Moreover, the “% Inhibition α-synuclein (result ± S.D.), Thioflavin T fluorometry” value in test [3] (setting [9]) turned out to be 13.8 ± 5.12%; in test [3] (setting [10]) it was 59.6±6.39%; in test [3] (setting [11]), 92.5±2.35%; in test [3] (setting [12]) it was 96.8 ± 2.82%. In addition, the “% Inhibition Aβ (result ± S.D.), Thioflavin T fluorometry” value was 15.1 ± 3.81% in test [4] (setting [5]), 34.6 ± 2.21% in test [4] (setting [6]), 92.3 ± 0.19% in test [4] (setting [7]) and 99.0 ± 0.77% in test [4] (setting [8]).
Take `O=C(Nc1cc(O)c(O)c(F)c1)c1ccc(O)c(O)c1` [DC-0051-F4, N-(3-fluoro-4,5-dihydroxyphenyl)-3,4-dihydroxybenzamide]: the “% Inhibition Aβ … Congo red binding” value in test [1] (setting [5]) is 4.3 ± 11.81%; in test [1] (setting [6]), 8.8 ± 5.07%; in test [1] (setting [7]), 10.9 ± 5.05%; in test [1] (setting [8]) it was 71.0 ± 2.39%. Besides, the “% Inhibition α-synuclein (result ± S.D.), Congo red binding” value came to 6.1 ± 8.92% in test [2] (setting [9]), 0.0 ± 3.44% in test [2] (setting [10]), 18.0 ± 0.58% in test [2] (setting [11]) and 64.8 ± 5.08% in test [2] (setting [12]). Further, the “disruption/disassembly” value in test [3] is “dose-dependent disruption/disassembly”. Further, the “% Inhibition α-synuclein (result ± S.D.), Thioflavin T fluorometry” value in test [3] (setting [9]) amounted to 6.1 ± 9.44%; in test [3] (setting [10]), 40.6 ± 1.49%; in test [3] (setting [11]) it was 94.3 ± 1.22%; in test [3] (setting [12]), 100.0 ± 2.84%. In addition, the “% Inhibition Aβ (result ± S.D.), Thioflavin T fluorometry” value in test [4] (setting [5]) is 16.0 ± 6.64%; in test [4] (setting [6]), 33.4 ± 2.09%; in test [4] (setting [7]), 79.8 ± 0.77%; in test [4] (setting [8]) it was 99.7 ± 0.58%.
